Laboratory results: the NIST ThermoML archive (doi:10.1016/j.jct.2004.02.001)
Where “and” joins values, the source holds several entries; their conditions need not be identical. Identical values can stand only once. Numbers after ± are expanded uncertainties.

Experiments:
[1] = for vapor or sublimation pressure: Calculated from knudsen effusion weight loss; for Triple point temperature: DTA
[2] = Molar enthalpy of transition or fusion; conditions: DSC

Cc1ccc(C(=O)O)cc1 [4-methylbenzoic acid]
vapor or sublimation pressure ([1]; 319.68 K, Crystal): 0.000137 ± 7e-06 kPa and 0.000133 ± 7e-06 kPa
vapor or sublimation pressure ([1]; 322.14 K, Crystal): 0.000182 ± 9e-06 kPa and 0.000179 ± 9e-06 kPa and 0.000174 ± 9e-06 kPa
vapor or sublimation pressure ([1]; 324.62 K, Crystal): 0.000235 ± 1.2e-05 kPa and 0.00023 ± 1.2e-05 kPa
vapor or sublimation pressure ([1]; 327.08 K, Crystal): 0.000309 ± 1.5e-05 kPa and 0.000307 ± 1.5e-05 kPa and 0.000312 ± 1.6e-05 kPa
vapor or sublimation pressure ([1]; 329.73 K, Crystal): 0.000421 ± 2.1e-05 kPa and 0.000415 ± 2.1e-05 kPa and 0.000408 ± 2e-05 kPa
vapor or sublimation pressure ([1]; 332.11 K, Crystal): 0.000536 ± 2.7e-05 kPa and 0.000529 ± 2.6e-05 kPa and 0.000515 ± 2.6e-05 kPa
vapor or sublimation pressure ([1]; 334.63 K, Crystal): 0.00071 ± 3.6e-05 kPa and 0.000689 ± 3.4e-05 kPa and 0.000685 ± 3.4e-05 kPa
vapor or sublimation pressure ([1]; 337.33 K, Crystal): 0.00092 ± 4.6e-05 kPa and 0.000891 ± 4.5e-05 kPa
Triple point temperature ([1]; Crystal): 452.34 ± 0.5 K
Molar enthalpy of transition or fusion ([2]; Crystal): 5.37 ± 0.124 kcal/mol

CCCCCCCCc1ccc(C(=O)O)cc1 [4-octylbenzoic acid]
vapor or sublimation pressure ([1]; 356.67 K, Crystal 2): 8.5e-05 ± 4e-06 kPa and 8.6e-05 ± 4e-06 kPa
vapor or sublimation pressure ([1]; 358.22 K, Crystal 2): 0.000102 ± 5e-06 kPa and 0.000103 ± 5e-06 kPa
vapor or sublimation pressure ([1]; 359.66 K, Crystal 2): 0.000127 ± 6e-06 kPa and 0.000126 ± 6e-06 kPa
vapor or sublimation pressure ([1]; 361.16 K, Crystal 2): 0.00015 ± 8e-06 kPa and 0.000148 ± 7e-06 kPa
vapor or sublimation pressure ([1]; 362.71 K, Crystal 2): 0.000182 ± 9e-06 kPa and 0.000181 ± 9e-06 kPa
vapor or sublimation pressure ([1]; 364.25 K, Crystal 2): 0.000213 ± 1.1e-05 kPa and 0.000211 ± 1.1e-05 kPa
vapor or sublimation pressure ([1]; 365.68 K, Crystal 2): 0.000255 ± 1.3e-05 kPa and 0.000253 ± 1.3e-05 kPa
vapor or sublimation pressure ([1]; 367.46 K, Crystal 1): 0.000302 ± 1.5e-05 kPa and 0.000305 ± 1.5e-05 kPa
vapor or sublimation pressure ([1]; 368.85 K, Crystal 1): 0.000356 ± 1.8e-05 kPa and 0.000355 ± 1.8e-05 kPa
vapor or sublimation pressure ([1]; 370.35 K, Crystal 1): 0.000426 ± 2.1e-05 kPa and 0.000424 ± 2.1e-05 kPa
vapor or sublimation pressure ([1]; 371.86 K, Crystal 1): 0.000504 ± 2.5e-05 kPa and 0.000502 ± 2.5e-05 kPa
Triple point temperature ([1]; Crystal 1): 373.25 ± 0.5 K
Triple point temperature ([1]; Crystal 2): 366.56 ± 0.5 K
Triple point temperature ([1]; Crystal 3): 305.46 ± 0.5 K
Triple point temperature ([1]; Nematic liquid crystal): 385.54 ± 0.5 K
Molar enthalpy of transition or fusion ([2]; Crystal 1): 3.42 ± 0.112 kcal/mol
Molar enthalpy of transition or fusion ([2]; Crystal 2): 0.112 ± 0.0263 kcal/mol
Molar enthalpy of transition or fusion ([2]; Crystal 3): 1.29 ± 0.0598 kcal/mol
Molar enthalpy of transition or fusion ([2]; Nematic liquid crystal): 0.287 ± 0.0621 kcal/mol

CCCCCc1ccc(C(=O)O)cc1 [4-pentylbenzoic acid]
vapor or sublimation pressure ([1]; 341.16 K, Crystal 1): 0.000174 ± 9e-06 kPa and 0.000177 ± 9e-06 kPa and 0.000169 ± 8e-06 kPa
vapor or sublimation pressure ([1]; 343.16 K, Crystal 1): 0.000223 ± 1.1e-05 kPa and 0.000214 ± 1.1e-05 kPa
vapor or sublimation pressure ([1]; 345.16 K, Crystal 1): 0.000279 ± 1.4e-05 kPa and 0.000271 ± 1.4e-05 kPa
vapor or sublimation pressure ([1]; 347.18 K, Crystal 1): 0.000358 ± 1.8e-05 kPa and 0.000355 ± 1.8e-05 kPa and 0.000345 ± 1.7e-05 kPa
vapor or sublimation pressure ([1]; 349.18 K, Crystal 1): 0.000454 ± 2.3e-05 kPa and 0.000455 ± 2.3e-05 kPa and 0.000439 ± 2.2e-05 kPa
vapor or sublimation pressure ([1]; 351.17 K, Crystal 1): 0.000553 ± 2.8e-05 kPa and 0.000544 ± 2.7e-05 kPa and 0.000533 ± 2.7e-05 kPa
vapor or sublimation pressure ([1]; 353.16 K, Crystal 1): 0.000694 ± 3.5e-05 kPa and 0.000692 ± 3.5e-05 kPa and 0.000682 ± 3.4e-05 kPa
vapor or sublimation pressure ([1]; 355.16 K, Crystal 1): 0.000852 ± 4.3e-05 kPa and 0.000854 ± 4.3e-05 kPa and 0.000828 ± 4.1e-05 kPa
vapor or sublimation pressure ([1]; 357.16 K, Crystal 1): 0.00109 ± 0.00011 kPa and 0.00106 ± 0.00011 kPa
Triple point temperature ([1]; Crystal 1): 362.45 ± 0.5 K
Triple point temperature ([1]; Nematic liquid crystal): 399.3 ± 0.5 K
Molar enthalpy of transition or fusion ([2]; Crystal 1): 2.72 ± 0.0813 kcal/mol
Molar enthalpy of transition or fusion ([2]; Nematic liquid crystal): 0.263 ± 0.108 kcal/mol

CCCc1ccc(C(=O)O)cc1 [4-propylbenzoic acid]
vapor or sublimation pressure ([1]; 331.16 K, Crystal 1): 0.000166 ± 8e-06 kPa and 0.000162 ± 8e-06 kPa and 0.000159 ± 8e-06 kPa
vapor or sublimation pressure ([1]; 333.14 K, Crystal 1): 0.000207 ± 1e-05 kPa
vapor or sublimation pressure ([1]; 335.17 K, Crystal 1): 0.000259 ± 1.3e-05 kPa and 0.000252 ± 1.3e-05 kPa and 0.000246 ± 1.2e-05 kPa
vapor or sublimation pressure ([1]; 337.17 K, Crystal 1): 0.000321 ± 1.6e-05 kPa and 0.000318 ± 1.6e-05 kPa
vapor or sublimation pressure ([1]; 339.15 K, Crystal 1): 0.000397 ± 2e-05 kPa
vapor or sublimation pressure ([1]; 341.16 K, Crystal 1): 0.000501 ± 2.5e-05 kPa and 0.000485 ± 2.4e-05 kPa
vapor or sublimation pressure ([1]; 343.16 K, Crystal 1): 0.00062 ± 3.1e-05 kPa
vapor or sublimation pressure ([1]; 345.14 K, Crystal 1): 0.000772 ± 3.9e-05 kPa and 0.000774 ± 3.9e-05 kPa and 0.000768 ± 3.8e-05 kPa
vapor or sublimation pressure ([1]; 347.16 K, Crystal 1): 0.000968 ± 4.8e-05 kPa and 0.000944 ± 4.7e-05 kPa
Triple point temperature ([1]; Crystal 1): 415.41 ± 0.5 K
Triple point temperature ([1]; Crystal 2): 298.48 ± 0.5 K
Molar enthalpy of transition or fusion ([2]; Crystal 1): 4.7 ± 0.139 kcal/mol
Molar enthalpy of transition or fusion ([2]; Crystal 2): 0.81 ± 0.086 kcal/mol
